# In US4515806A, “Furan derivatives and addition salts thereof pharmaceutical compositions and the therapeutical applications thereof” (priority 1982, dated 1985):
# Like-named read-outs stand apart in the source and are kept apart here.
# Tests used:
# [1] = system: gastric juices; assay: Ligature of pylorus, intravenous treatment (Table B-1); type: in vivo, Male Wistar rats; settings: for Volume of gastric juice, percentage decrease relative to control / pH of gastric juice, percentage increase relative to control / Total acidity (titration with 0,1N NaOH), percentage decrease relative to control: 10 mg/kg i.v., 3 h after ligature
# Description: (§1) The method of […] et al. (J. Pharmac. Exp. […] Male Wistar rats, weighing from 250 to 300 grams were used. […] The rats were anesthetised with ethyl ether, a laparotomy was performed and the pylorus was ligatured. The abdominal incision was then sewn. Treatment was effected: (B-1) intravenously, through the femoral vein. (B-2) intraduodenally, prior to sewing the abdominal incision. Three hours after ligature of the pylorus, the volumen of gastric juices was measured, the pH was determined by a Beckman Century SS-1 pH-meter.
# [2] = system: gastric juices; assay: Ligature of pylorus, intraduodenal treatment (Table B-2); type: in vivo, Male Wistar rats
# Description: as §1
# [3] = in vivo; settings: mouse, iv
# [4] = system: mice
# [5] = target: T1, histamine H2 receptors (Rattus norvegicus, UniProt P25102); settings: for inhibition at 0.0434 µM / inhibition at 0.434 µM / inhibition at 4.34 µM / inhibition at 43.4 µM: rat, read-out: Antagonism (% reduction) of the histamine induced response in KCl contracted rat uterus; for EC50: read-out: effective concentration for producing a 50% antagonism of the histamine response (EC50)
# T1 construct: the uterine horn was removed and suspended in a De Jalon solution in an organ bath; from tissue; host or cells: rat uterine horn (rats in estrus, stilbestrol-treated)
# T1 sequence (P25102 whole entry): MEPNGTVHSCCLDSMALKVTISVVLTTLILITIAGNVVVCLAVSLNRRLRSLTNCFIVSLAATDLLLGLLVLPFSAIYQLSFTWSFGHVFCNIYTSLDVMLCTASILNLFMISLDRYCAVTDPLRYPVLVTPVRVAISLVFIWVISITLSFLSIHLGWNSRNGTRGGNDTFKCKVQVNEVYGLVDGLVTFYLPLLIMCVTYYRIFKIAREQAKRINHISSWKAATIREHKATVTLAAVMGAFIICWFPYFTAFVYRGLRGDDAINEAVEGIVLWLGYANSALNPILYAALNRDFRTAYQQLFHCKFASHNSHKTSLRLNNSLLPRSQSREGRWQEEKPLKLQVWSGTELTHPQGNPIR
# Description: Rats in estrus were used and were administered 100 mcg of stilbestrol by intramuscular (i.m.) injection 30 hours before removing the uterus. On the day of the experiment, the uterine horn was removed and suspended in a De Jalon solution in an organ bath, held at 28° C. and aerated with a flow of 95% O2 and 5% CO2. Thereafter a sustained uterine contraction was induced by the addition of a KCl solution to provide a concentration in the organ bath of 4.2 mg/ml, namely, 10 times that of the De Jalon serum. The uterus was caused to relax with the addition of the amount of histamine required to obtain a good response.
# [6] = Solubility (in words); type: physicochemical
# [7] = system: rats; assay: Acute toxicity in rats
# [8] = 1 mg/kg intraduodenal, lot of 4 rats
# [9] = 3 mg/kg intraduodenal, 4 or 5 rats
# [10] = 10 mg/kg intraduodenal, first lot (4 or 5 rats)
# [11] = 10 mg/kg intraduodenal, lot of 8 rats
# [12] = 10 mg/kg intraduodenal, second lot (4 or 5 rats)
# [13] = 1 mg/kg intraduodenal, lot of 5 rats
Compound,inhibition at 0.0434 µM [5] [%],inhibition at 0.434 µM [5] [%],inhibition at 4.34 µM [5] [%],inhibition at 43.4 µM [5] [%],solubility ([6]; methanol),solubility ([6]; water),"Volume of gastric juice, percentage decrease relative to control ([1]; first lot (2 or 3 rats)) [%]","pH of gastric juice, percentage increase relative to control ([1]; first lot (2 or 3 rats)) [%]","Total acidity (titration with 0,1N NaOH), percentage decrease relative to control ([1]; lot of 5 rats) [%]","Volume of gastric juice, percentage decrease relative to control ([1]; lot of 5 rats) [%]","Total acidity (titration with 0,1N NaOH), percentage decrease relative to control ([1]; lot of 8 rats) [%]","Volume of gastric juice, percentage decrease relative to control ([1]; lot of 8 rats) [%]","pH of gastric juice, percentage increase relative to control ([1]; lot of 8 rats) [%]","Total acidity (titration with 0,1N NaOH), percentage decrease relative to control [2, 8] [%]","Volume of gastric juice, percentage decrease relative to control [2, 8] [%]","pH of gastric juice, percentage increase relative to control [2, 8] [%]","Total acidity (titration with 0,1N NaOH), percentage decrease relative to control [2, 9] [%]","Volume of gastric juice, percentage decrease relative to control [2, 9] [%]","pH of gastric juice, percentage increase relative to control [2, 9] [%]","Total acidity (titration with 0,1N NaOH), percentage decrease relative to control [2, 10] [%]",other results
"CN(C)Cc1ccc(CSCCNC(=C[N+](=O)[O-])NCCO)o1.Cl [Example 1, (b), N-[2-[[(5-[(dimethylamino)methyl]-2-furanyl)methyl]thio]ethyl]-N'-(2-hydroxyethyl)-2-nitro-1,1-ethenediamine hydrochloride]",0,22.2,47.3,81.8,soluble,soluble,–,–,–,–,–,–,–,–,–,–,–,–,–,–,"activity (reduction in volume, increase in pH of gastric juice) ([1]; intravenous): very high; activity compared with cimetidine ([1]; intravenous): more active than cimetidine; activity compared with ranitidine ([1]; intravenous): rather higher; activity (reduction in volume, increase in pH of gastric juice) ([2]; intraduodenal): very high; activity compared with cimetidine ([2]; intraduodenal): more active than cimetidine; activity compared with ranitidine ([2]; intraduodenal): practically the same activity; LD50 [3]: 200 mg/kg; acute toxicity [4]: low; activity compared with ranitidine ([5]; rat uterus H2 receptors): more active than ranitidine; EC50 [5]: 5.5 µM; acute toxicity [7]: low"
"CN/C(=N/CCSCc1nc[nH]c1C)NC#N [Cimetidine, cimetidine]",–,–,–,–,–,–,41.0,50.4,11.7,23.2,52.7,7.3,64.9,48,14,46,48,23,29,84,"Volume of gastric juice, percentage decrease relative to control [2, 10]: 28%; pH of gastric juice, percentage increase relative to control [2, 10]: 50%; Total acidity (titration with 0,1N NaOH), percentage decrease relative to control [2, 11]: 40%; Volume of gastric juice, percentage decrease relative to control [2, 11]: 6.6%; pH of gastric juice, percentage increase relative to control [2, 11]: 100%; Total acidity (titration with 0,1N NaOH), percentage decrease relative to control [2, 12]: 82%; Volume of gastric juice, percentage decrease relative to control [2, 12]: 51%; pH of gastric juice, percentage increase relative to control [2, 12]: 178%; Total acidity (titration with 0,1N NaOH), percentage decrease relative to control ([2]; 25 mg/kg intraduodenal, 5 rats): 51.5%; Volume of gastric juice, percentage decrease relative to control ([2]; 25 mg/kg intraduodenal, 5 rats): 35.4%; pH of gastric juice, percentage increase relative to control ([2]; 25 mg/kg intraduodenal, 5 rats): 110%"
"CNC(=C[N+](=O)[O-])NCCSCc1ccc(CN(C)C)o1 [Ranitidine, ranitidine]",0,20,42.2,73.8,–,–,68.1,200.8,81.8,61.4,72.7,21,104.2,38,46.2,17,47,5,46,66,"pH of gastric juice, percentage increase relative to control ([1]; lot of 5 rats): 88.5%; Total acidity (titration with 0,1N NaOH), percentage decrease relative to control [2, 13]: 18%; Volume of gastric juice, percentage increase relative to control [2, 13]: 6%; pH of gastric juice, percentage increase relative to control [2, 13]: 60%; Volume of gastric juice, percentage decrease relative to control [2, 10]: 30%; pH of gastric juice, percentage increase relative to control [2, 10]: 95%; Total acidity (titration with 0,1N NaOH), percentage decrease relative to control [2, 11]: 50%; Volume of gastric juice, percentage decrease relative to control [2, 11]: 12%; pH of gastric juice, percentage increase relative to control [2, 11]: 97.4%; Total acidity (titration with 0,1N NaOH), percentage decrease relative to control [2, 12]: 75%; Volume of gastric juice, percentage decrease relative to control [2, 12]: 58%; pH of gastric juice, percentage increase relative to control [2, 12]: 202%; Total acidity (titration with 0,1N NaOH), percentage decrease relative to control ([2]; 25 mg/kg intraduodenal, 5 rats): 83%; Volume of gastric juice, percentage decrease relative to control ([2]; 25 mg/kg intraduodenal, 5 rats): 55%; pH of gastric juice, percentage increase relative to control ([2]; 25 mg/kg intraduodenal, 5 rats): 210%; EC50 ([5]; rat uterus, KCl contracted): 8.25 µM"
"CN(C)Cc1ccc(CSCCNC(=C[N+](=O)[O-])NCCO)o1 [Example 1, (a), N-[2-[[(5-[(dimethylamino)methyl]-2-furanyl)methyl]thio]ethyl]-N'-(2-hydroxyethyl)-2-nitro-1,1-ethenediamine]",–,–,–,–,soluble,–,–,–,–,–,–,–,–,–,–,–,–,–,–,–,solubility ([6]; chloroform): soluble
NCCc1c[nH]cn1 [histamine],–,–,–,–,–,–,–,–,–,–,–,–,–,–,–,–,–,–,–,–,inhibition at 54.3 µM ([5]; read-out: inhibition of the contraction caused by KCl): 74.5%
"O=[N+]([O-])C=C(NCCO)NCCO [Example 2, N,N'-bis(2-hydroxyethyl)-2-nitro-1,1-ethenediamine]",–,–,–,–,slightly soluble,soluble,–,–,–,–,–,–,–,–,–,–,–,–,–,–,solubility ([6]; ethanol): slightly soluble
